Measured values: PubChem BioAssay AID248 (DTP/NCI, 2004)
Values joined by “and” are separate entries in the source; they are usually repeats but may differ in a detail not shown here. Equal entries are not always repeated. Inconclusive results and toxic doses are left out. Rule as the data show it: active = T/C of 150% or more; inactive = T/C below 125%.

Tested on: L1210 leukemia ip in BDF1 mice, survival T/C
Test: NCI In Vivo Anticancer Drug Screen. Data for tumor model L1210 Leukemia (intraperitoneal) in B6D2F1 (BDF1) mice
Conditions: endpoint: mean survival time, higher = longer survival
In short: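 Read-out is survival time, reported as the treated-group measurement over the vehicle-control measurement.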

[1] = dose: 100.0 mg/kg/injection, schedule: Q01DX001 (ip), vehicle: Klucel (hydroxypropylcellulose) (HPC)
[2] = dose: 100.0 mg/kg/injection, schedule: Q04DX003 (ip), vehicle: Klucel (hydroxypropylcellulose) (HPC)
[3] = dose: 200.0 mg/kg/injection, schedule: Q01DX001 (ip), vehicle: Klucel (hydroxypropylcellulose) (HPC)
[4] = dose: 200.0 mg/kg/injection, schedule: Q04DX003 (ip), vehicle: Klucel (hydroxypropylcellulose) (HPC)
[5] = dose: 400.0 mg/kg/injection, schedule: Q01DX001 (ip), vehicle: Klucel (hydroxypropylcellulose) (HPC)
[6] = dose: 400.0 mg/kg/injection, schedule: Q04DX003 (ip), vehicle: Klucel (hydroxypropylcellulose) (HPC)
[7] = dose: 100.0 mg/kg/injection, schedule: Q01DX001 (ip), vehicle: saline with Tween-80
[8] = dose: 200.0 mg/kg/injection, schedule: Q01DX001 (ip), vehicle: saline with Tween-80
[9] = dose: 400.0 mg/kg/injection, schedule: Q01DX001 (ip), vehicle: saline with Tween-80
[10] = dose: 50.0 mg/kg/injection, schedule: Q01DX009 (ip), vehicle: saline with Tween-80
[11] = dose: 100.0 mg/kg/injection, schedule: Q01DX009 (ip), vehicle: saline with Tween-80
[12] = dose: 200.0 mg/kg/injection, schedule: Q01DX009 (ip), vehicle: saline with Tween-80
[13] = dose: 100.0 mg/kg/injection, schedule: Q01DX001 (ip), vehicle: saline
[14] = dose: 200.0 mg/kg/injection, schedule: Q01DX001 (ip), vehicle: saline
[15] = dose: 400.0 mg/kg/injection, schedule: Q01DX001 (ip), vehicle: saline
[16] = dose: 100.0 mg/kg/injection, schedule: Q01DX009 (ip), vehicle: saline
[17] = dose: 200.0 mg/kg/injection, schedule: Q01DX009 (ip), vehicle: saline
[18] = dose: 50.0 mg/kg/injection, schedule: Q01DX009 (ip), vehicle: saline

Measured: T/C

CCOC(=O)C1(C(=O)OCC)CC(=O)c2c(OC)ccc(OC)c2C1
inactive: dose: 12.5 mg/kg/injection, schedule: Q04DX003 (ip), vehicle: Klucel (hydroxypropylcellulose) (HPC) 94 % of control | dose: 25.0 mg/kg/injection, schedule: Q04DX003 (ip), vehicle: Klucel (hydroxypropylcellulose) (HPC) 105 % of control | dose: 50.0 mg/kg/injection, schedule: Q04DX003 (ip), vehicle: Klucel (hydroxypropylcellulose) (HPC) 98 % of control | [1] 98 % of control | [2] 95 % of control | [3] 98 % of control | [4] 103 % of control | [5] 106 % of control | [6] 111 % of control

COc1ccc(C=Nc2ccc(OC(C)=O)cc2)cc1
inactive: dose: 176.0 mg/kg/injection, schedule: Q01DX009 (ip), vehicle: other 105 % of control | dose: 264.0 mg/kg/injection, schedule: Q01DX009 (ip), vehicle: other 120 % of control

CCCNc1nc(N)[nH]c(=O)c1NC=O
inactive: dose: 55.0 mg/kg/injection, schedule: Q01DX Z (ip), vehicle: methylcellulose (MC) 105 % of control | dose: 83.0 mg/kg/injection, schedule: Q01DX Z (ip), vehicle: methylcellulose (MC) 109 % of control | dose: 125.0 mg/kg/injection, schedule: Q01DX Z (ip), vehicle: methylcellulose (MC) 109 % of control | dose: 180.0 mg/kg/injection, schedule: Q01DX Z (ip), vehicle: methylcellulose (MC) 97 % of control

C[C-]=O.C[C-]=O.[Br][Pd][Br]
inactive: [7] 97 % of control | [8] 100 % of control | [9] 107 % of control

Cc1[nH]nc2c(=O)[nH]c3ccccc3c12
inactive: dose: 18.75 mg/kg/injection, schedule: Q01DX001 (ip), vehicle: Klucel (hydroxypropylcellulose) (HPC) 89 % of control | dose: 37.5 mg/kg/injection, schedule: Q01DX001 (ip), vehicle: Klucel (hydroxypropylcellulose) (HPC) 86 % of control

CC(=O)Nc1cc(Cl)ccc1Cl
inactive: [2] 102 % of control | [4] 88 % of control | [6] 102 % of control

O=CNC(Cc1ccc(OCc2ccccc2)cc1)C(=O)O (stereo not given)
inactive: [10] 98 % of control | [7] 89 % of control | [11] 96 % of control | [8] 95 % of control | [12] 98 % of control | [9] 88 % of control

CC(=O)Nc1ccc(-n2cnc3c(Cl)ncnc32)cc1C
inactive: dose: 100.0 mg/kg/injection, schedule: Q01DX001 (ip), vehicle: carboxymethylcellulose (CMC) 87 % of control | dose: 200.0 mg/kg/injection, schedule: Q01DX001 (ip), vehicle: carboxymethylcellulose (CMC) 91 % of control | dose: 400.0 mg/kg/injection, schedule: Q01DX001 (ip), vehicle: carboxymethylcellulose (CMC) 91 % of control

CC(=O)OC1COC(n2cnc3c(=O)[nH]cnc32)C(OC(C)=O)C1OC(C)=O (stereo not given)
inactive: dose: 50.0 mg/kg/injection, schedule: Q01DX001 (ip), vehicle: saline 97 % of control | [13] 97 % of control and 115 % of control and 101 % of control | [14] 86 % of control and 109 % of control and 103 % of control | [15] 95 % of control

O=C(O)CCCCCN1C(=O)c2cccc([N+](=O)[O-])c2C1=O
inactive: [7] 110 % of control | [8] 109 % of control

COc1ccc(SC(=O)Nc2cc([N+](=O)[O-])ccc2Cl)cc1
inactive: dose: 25.0 mg/kg/injection, schedule: Q01DX009 (ip), vehicle: saline with Tween-80 89 % of control | [10] 89 % of control

OCCNc1ncnc2ccccc12
inactive: dose: 100.0 mg/kg/injection, schedule: Q04DX003 (ip), vehicle: saline with Tween-80 98 % of control | dose: 200.0 mg/kg/injection, schedule: Q04DX003 (ip), vehicle: saline with Tween-80 104 % of control | dose: 400.0 mg/kg/injection, schedule: Q04DX003 (ip), vehicle: saline with Tween-80 104 % of control

CCOC(=O)c1ccc(N(Cc2cccc([N+](=O)[O-])c2)S(=O)(=O)c2ccc(C)cc2)cc1
inactive: dose: 75.0 mg/kg/injection, schedule: Q01DX001 (ip), vehicle: saline with Tween-80 93 % of control | dose: 150.0 mg/kg/injection, schedule: Q01DX001 (ip), vehicle: saline with Tween-80 87 % of control

C[n+]1cc2cc(O)c(O)cc2c2ccc3cc(O)c(O)cc3c21
inactive: dose: 40.0 mg/kg/injection, schedule: Q01DX009 (ip), vehicle: saline 102 % of control | dose: 80.0 mg/kg/injection, schedule: Q01DX009 (ip), vehicle: saline 107 % of control | dose: 120.0 mg/kg/injection, schedule: Q01DX009 (ip), vehicle: saline 98 % of control | dose: 240.0 mg/kg/injection, schedule: Q01DX009 (ip), vehicle: saline 98 % of control

Cn1ccc(=O)[nH]c1=O
inactive: [2] 96 % of control | [4] 89 % of control | [6] 115 % of control

C[N+](C)(CC(=O)Nc1ccc(Cl)c(C(F)(F)F)c1)CC(=O)c1ccc(Cl)c(Cl)c1
inactive: dose: 100.0 mg/kg/injection, schedule: Q04DX003 (ip), vehicle: saline sonified 97 % of control | dose: 200.0 mg/kg/injection, schedule: Q04DX003 (ip), vehicle: saline sonified 111 % of control | dose: 400.0 mg/kg/injection, schedule: Q04DX003 (ip), vehicle: saline sonified 100 % of control

COc1cccc2c1C(=O)c1c(OC)c(C(Br)Br)cc(OC)c1C2=O
inactive: dose: 12.5 mg/kg/injection, schedule: Q01DX009 (ip), vehicle: other 99 % of control | dose: 25.0 mg/kg/injection, schedule: Q01DX009 (ip), vehicle: other 89 % of control | dose: 50.0 mg/kg/injection, schedule: Q01DX009 (ip), vehicle: other 89 % of control | dose: 100.0 mg/kg/injection, schedule: Q01DX009 (ip), vehicle: other 89 % of control | dose: 200.0 mg/kg/injection, schedule: Q01DX009 (ip), vehicle: other 87 % of control

O=c1[nH]c2ccc(Cl)cc2c(=O)o1
inactive: [13] 92 % of control | [16] 100 % of control | [14] 95 % of control | [17] 98 % of control | [15] 101 % of control | dose: 400.0 mg/kg/injection, schedule: Q01DX009 (ip), vehicle: saline 90 % of control

O=c1sc(N=Nc2ccccc2)nn1-c1ccccc1
inactive: [18] 91 % of control | [16] 88 % of control | [17] 93 % of control

C=CC[n+]1ccccc1C
inactive: [10] 91 % of control | [11] 91 % of control

C=CC[n+]1ccc2ccccc2c1
inactive: dose: 25.0 mg/kg/injection, schedule: Q01DX009 (ip), vehicle: saline 108 % of control | [18] 102 % of control | [16] 105 % of control

CN(C)S(=O)(=O)N(C)C
inactive: [1] 96 % of control | [3] 102 % of control | [5] 102 % of control

CCCCOCN1C(=O)N(COCCCC)C(=O)C(CC)(c2ccccc2)C1=O
inactive: [11] 97 % of control | [12] 94 % of control | dose: 400.0 mg/kg/injection, schedule: Q01DX009 (ip), vehicle: saline with Tween-80 87 % of control
